Patent US7101692B2 (priority 1999, dated 2006)
“Also recorded” adds a separate entry of the source.

Assays:
[1] = system: sorting reaction (sortase cleavage of Seb-Spa490-524 P2 precursor at the LPXTG motif); format: cell-based, S. aureus OS2
[2] = system: S. aureus OS2 (pSeb-Spa490-524); format: cell-based
[3] = target: T1, SrtADN (Staphylococcus aureus, UniProt Q2FV99); format: biochemical, S. aureus; conditions: 5 mM MTSET or 5 mM pHMB, 5 μM SrtADN
[4] = target: sortase (Staphylococcus aureus, UniProt Q2FV99); format: biochemical; conditions: pre-incubation of staphylococcal extracts with 5 mM MTSET
[5] = system: cell wall synthesis; format: cell-based, staphylococci (S. aureus OS2)
[6] = system: cell wall sorting reaction (surface protein anchoring); format: cell-based, S. aureus OS2
[7] = system: wild-type staphylococci, strains SM317 and SM329; format: cell-based, S. aureus
[8] = target: T1, SrtADN; format: biochemical, S. aureus; conditions: absence of peptidoglycan substrate
Source text: The N-terminal membrane anchor segment of […] (residues 2-25) were replaced with a six-histidine tag ([…]). In the absence of the peptidoglycan substrate, SrtA DN catalyzes peptide bond hydrolysis and cleaves LPETG peptide, presumably between the threonine and the glycine (Ton-That et al., 2000).

[9] = system: staphylococci; format: cell-based, S. aureus OS2

T1 sequence (Q2FV99 26-206): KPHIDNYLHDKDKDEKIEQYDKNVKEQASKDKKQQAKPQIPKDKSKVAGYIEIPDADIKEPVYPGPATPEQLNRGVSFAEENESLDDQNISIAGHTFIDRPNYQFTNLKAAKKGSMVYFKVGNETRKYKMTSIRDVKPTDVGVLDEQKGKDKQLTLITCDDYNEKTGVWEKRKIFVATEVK
sortase, sequence (Q2FV99 whole entry): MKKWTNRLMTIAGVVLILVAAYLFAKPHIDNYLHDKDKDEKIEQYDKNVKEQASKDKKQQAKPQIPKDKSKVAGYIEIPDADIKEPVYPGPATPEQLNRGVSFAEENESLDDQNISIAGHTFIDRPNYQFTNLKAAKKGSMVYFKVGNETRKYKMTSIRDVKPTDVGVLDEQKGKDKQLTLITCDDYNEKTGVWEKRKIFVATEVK

## O[C@H](CS)[C@H](O)CS (racemic) [dithiothreitol (DTT), dithiothreitol]
[1]
  interference with cleavage of sorting signals at the LPXTG motif / cell wall sorting (in words): did not affect the sorting reaction

## OCCS [2-mercaptoethanol]
[1]
  interference with cleavage of sorting signals at the LPXTG motif / cell wall sorting (in words): did not affect the sorting reaction

## CS(=O)(=O)SCCS(=O)(=O)O [(2-sulfonatoethyl)methanethiosulfonate]
[1]
  interference with cleavage of sorting signals at the LPXTG motif / cell wall sorting (in words): interfered with sorting albeit not as effectively as MTSET

## CCN1C(=O)C=CC1=O [N-ethylmaleimide]
[1]
  interference with cleavage of sorting signals at the LPXTG motif / cell wall sorting (in words): did not

## C[N+](C)(C)CCSS(C)(=O)=O [[2-(trimethylammonium)ethyl]methanethiosulfonate]
[2]
  incorporation of [35S]methionine by staphylococci: prevented incorporation
  protein export (Sec-dependent export of P1 precursor): remained unaltered
[3]
  inhibition of LPXTG peptide cleavage: inhibited; also recorded: abolished all enzymatic activity
[4]
  inhibition of LPXTG peptide cleavage: inhibited
[1]
  interference with cleavage of sorting signals at the LPXTG motif / cell wall sorting (in words): interfered with the cleavage of sorting signals at the LPXTG motif

## NC(=O)CI [iodoacetamide]
[1]
  interference with cleavage of sorting signals at the LPXTG motif / cell wall sorting (in words): did not

## O=C(O)CI [iodoacetic acid]
[1]
  interference with cleavage of sorting signals at the LPXTG motif / cell wall sorting (in words): did not

## CN[C@H](CC(C)C)C(=O)N[C@H]1C(=O)N[C@@H](CC(N)=O)C(=O)N[C@H]2C(=O)N[C@H]3C(=O)N[C@H](C(=O)N[C@H](C(=O)O)c4cc(O)cc(O)c4-c4cc3ccc4O)[C@H](O)c3ccc(c(Cl)c3)Oc3cc2cc(c3O[C@@H]2O[C@H](CO)[C@@H](O)[C@H](O)[C@H]2O[C@H]2C[C@](C)(N)[C@H](O)[C@H](C)O2)Oc2ccc(cc2Cl)[C@H]1O [vancomycin]
[5]
  fold inhibition of cell wall synthesis: 9.5 fold
  inhibition of cell wall synthesis (lysine/leucine ratio): 20 fold
[6]
  [P2]/[M]: 0.47 ± 0.04
  effect on rate of cell wall sorting (P2 precursor accumulation), in words: led to a steady accumulation of P2 precursor

## lysostaphin
[7]
  growth inhibition by lysostaphin: inhibited growth of wild-type staphylococci

## methylmethane thiosulfonate
[8]
  inhibition of LPETG peptide cleavage (peptide bond hydrolysis): inhibited

## moenomycin
[5]
  fold inhibition of cell wall synthesis: 1.6 fold
[9]
  growth rate of staphylococci: reduced the growth rate
[6]
  [P2]/[M]: 0.24 ± 0.04
  effect on rate of cell wall sorting (P2 precursor accumulation), in words: similar, albeit weaker effect

## p-hydroxymercuribenzoic acid [p-hydroxymercuribenzoic acid (pHMB)]
[3]
  inhibition of LPXTG peptide cleavage: inhibited
[1]
  interference with cleavage of sorting signals at the LPXTG motif / cell wall sorting (in words): displayed an inhibitory effect

## penicillin
[5]
  fold inhibition of cell wall synthesis: 3.3 fold
[9]
  growth rate of staphylococci: reduced the growth rate
[6]
  [P2]/[M]: 0.10 ± 0.01
  effect on rate of cell wall sorting (P2 precursor accumulation), in words: did not alter the rate of cell wall sorting
